From ChEMBL document CHEMBL1201862, “PubChem BioAssay data set” (2004)
Structures can show the parent of a compound that is named as a salt. Calls of active or inactive are those of the source.

How the values were obtained:
[1] = cytotoxicity toward HCT116 cells – cell-based, CellTiter-Glo luminescence, IC50, dose response (AID 1117332); assay type: functional; settings: HCT-116
BJ [2] = experiment: cells; assay type: functional, cell-based; settings: Homo sapiens
ORF 73 = ORF 73 (Human herpesvirus 8, UniProt O40947); experiment: inhibitors of C-LANA binding to LBS DNA, dose response, biochemical, fluorescence polarization, cherry-picked samples (AID 504725); set-up: species or system Human gammaherpesvirus 8;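 also: fluorescence polarization of a labeled DNA duplex reporting LANA DNA binding; potency is for inhibitors that block LANA binding to the DNA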
Sequence of ORF 73 (O40947 whole entry): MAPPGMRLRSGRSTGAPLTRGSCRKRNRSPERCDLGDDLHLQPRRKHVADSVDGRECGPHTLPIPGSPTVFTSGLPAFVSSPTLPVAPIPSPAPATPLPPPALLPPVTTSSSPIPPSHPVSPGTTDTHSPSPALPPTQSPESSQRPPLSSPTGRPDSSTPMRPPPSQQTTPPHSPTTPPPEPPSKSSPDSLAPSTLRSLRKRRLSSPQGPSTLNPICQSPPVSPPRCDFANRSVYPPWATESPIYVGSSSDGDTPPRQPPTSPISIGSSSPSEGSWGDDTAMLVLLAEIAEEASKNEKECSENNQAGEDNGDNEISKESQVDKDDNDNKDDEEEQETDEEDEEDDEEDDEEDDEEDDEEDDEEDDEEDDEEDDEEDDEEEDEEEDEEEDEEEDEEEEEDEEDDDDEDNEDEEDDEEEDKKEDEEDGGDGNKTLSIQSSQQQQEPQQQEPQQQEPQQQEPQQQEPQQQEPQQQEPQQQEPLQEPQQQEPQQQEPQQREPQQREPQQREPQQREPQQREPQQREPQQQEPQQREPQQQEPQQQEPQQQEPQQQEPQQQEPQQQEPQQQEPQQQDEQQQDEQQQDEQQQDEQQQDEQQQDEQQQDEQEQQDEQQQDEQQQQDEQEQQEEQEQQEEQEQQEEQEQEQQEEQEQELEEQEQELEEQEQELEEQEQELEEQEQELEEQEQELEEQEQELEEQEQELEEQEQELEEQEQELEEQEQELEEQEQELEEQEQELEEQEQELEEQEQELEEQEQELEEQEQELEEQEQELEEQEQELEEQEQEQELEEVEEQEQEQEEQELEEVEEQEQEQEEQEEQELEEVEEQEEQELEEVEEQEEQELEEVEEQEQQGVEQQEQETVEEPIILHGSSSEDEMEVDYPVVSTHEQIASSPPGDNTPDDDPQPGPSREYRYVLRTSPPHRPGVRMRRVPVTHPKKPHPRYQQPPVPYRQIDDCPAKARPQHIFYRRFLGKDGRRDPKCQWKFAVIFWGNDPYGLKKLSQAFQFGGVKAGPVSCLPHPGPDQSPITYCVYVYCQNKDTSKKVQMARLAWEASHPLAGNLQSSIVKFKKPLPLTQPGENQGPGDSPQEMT

Insulin-degrading enzyme [3] = target: T1, Insulin-degrading enzyme (Homo sapiens, UniProt P14735); experiment: activators of endogenous IDE in HEK cells, dose response, cell-based, fluorescence polarization (AID 588439); assay type: functional
T1 sequence (P14735 whole entry): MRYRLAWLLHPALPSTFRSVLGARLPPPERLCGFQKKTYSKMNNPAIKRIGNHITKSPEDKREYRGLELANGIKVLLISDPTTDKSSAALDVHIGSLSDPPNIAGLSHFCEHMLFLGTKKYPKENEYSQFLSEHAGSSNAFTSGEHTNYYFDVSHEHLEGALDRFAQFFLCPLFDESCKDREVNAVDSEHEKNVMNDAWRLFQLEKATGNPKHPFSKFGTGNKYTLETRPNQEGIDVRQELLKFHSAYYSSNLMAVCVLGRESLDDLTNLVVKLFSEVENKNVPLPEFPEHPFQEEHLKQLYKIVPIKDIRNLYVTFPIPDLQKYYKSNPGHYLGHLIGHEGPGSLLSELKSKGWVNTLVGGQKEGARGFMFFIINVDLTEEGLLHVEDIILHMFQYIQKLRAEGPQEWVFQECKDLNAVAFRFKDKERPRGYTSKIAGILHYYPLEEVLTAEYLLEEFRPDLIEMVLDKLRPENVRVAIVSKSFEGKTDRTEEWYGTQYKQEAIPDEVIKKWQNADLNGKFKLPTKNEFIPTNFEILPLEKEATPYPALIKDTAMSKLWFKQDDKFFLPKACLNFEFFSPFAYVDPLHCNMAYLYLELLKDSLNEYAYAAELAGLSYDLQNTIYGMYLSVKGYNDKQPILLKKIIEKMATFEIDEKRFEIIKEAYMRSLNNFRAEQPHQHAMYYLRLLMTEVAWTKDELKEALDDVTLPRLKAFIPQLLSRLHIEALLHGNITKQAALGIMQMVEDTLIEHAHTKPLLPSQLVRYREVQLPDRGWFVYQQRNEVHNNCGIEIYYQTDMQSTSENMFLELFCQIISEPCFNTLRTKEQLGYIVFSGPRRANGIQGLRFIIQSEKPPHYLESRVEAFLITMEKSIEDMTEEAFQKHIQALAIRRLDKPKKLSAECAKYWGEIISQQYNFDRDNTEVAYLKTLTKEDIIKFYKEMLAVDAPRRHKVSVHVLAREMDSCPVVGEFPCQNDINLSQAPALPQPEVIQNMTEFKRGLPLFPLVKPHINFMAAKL

P388 = experiment: cells; assay type: functional; settings: Mus musculus
BJ [4] = experiment: cytotoxicity toward Ras-transformed BJeLR fibroblasts, dose response, cell-based, alamar blue fluorescence, cherrypicked samples (AID 2631); assay type: functional; settings: Homo sapiens;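 also: confirmatory dose-response assay in RAS-dependent BJ fibroblasts engineered with TERT, LT and ST, with cytotoxicity read by fluorescence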
[5] = HeLa 4N DNA content increase, dose response, cell-based, IC50 (AID 1117351); assay type: functional
P388/ADR = experiment: cells; assay type: functional; settings: Mus musculus
[6] = SNU-C1 cell viability reduction, dose response, CellTiter-Glo luminescence (AID 1117323); assay type: functional, cell-based
[7] = cytotoxicity toward HT-29 cells – cell-based, CellTiter-Glo luminescence, IC50, dose response (AID 1117330); assay type: functional
BJ [8] = experiment: cytotoxicity toward BJ-TERT-LT-ST fibroblasts, dose response, cell-based, RAS-independent, luminescence (AID 1935); assay type: functional; settings: Homo sapiens;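 also: BJ fibroblasts immortalized with TERT plus LT and ST oncogenes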
HEK293 [9] = experiment: HEK cell cytotoxicity by LDH release, dose response, cytotoxicity control for IDE activator project, fluorescence, HEK cells (AID 588440); assay type: functional, cell-based; settings: Homo sapiens;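 also: cytotoxicity by LDH release measuring loss of membrane integrity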
Insulin-degrading enzyme [10] = target: T1, Insulin-degrading enzyme; experiment: activators of recombinant IDE enzyme, dose response, counter-screen for IDE activator project, biochemical, fluorescence polarization (AID 588681)
BJ [11] = experiment: cytotoxicity toward BJ-TERT fibroblasts, dose response, cell-based, RAS-independent, luminescence (AID 1933); assay type: functional; settings: Homo sapiens
[12] = HCT116 cell viability decrease, GSK3B pretreatment – CellTiter-Glo, IC50, dose response (AID 1117339); assay type: functional; settings: HCT-116
Paired box protein Pax-8 = Paired box protein Pax-8 (Homo sapiens, UniProt Q06710); experiment: inhibitors of PAX8-driven TPO luciferase reporter, dose response, RMG-I cells, cherry-pick (AID 687027); assay type: functional, cell-based;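 also: luciferase reporter driven by Pax8 target thyroperoxidase promoter measured by SteadyGlo luminescence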
Sequence of Paired box protein Pax-8 (Q06710 whole entry): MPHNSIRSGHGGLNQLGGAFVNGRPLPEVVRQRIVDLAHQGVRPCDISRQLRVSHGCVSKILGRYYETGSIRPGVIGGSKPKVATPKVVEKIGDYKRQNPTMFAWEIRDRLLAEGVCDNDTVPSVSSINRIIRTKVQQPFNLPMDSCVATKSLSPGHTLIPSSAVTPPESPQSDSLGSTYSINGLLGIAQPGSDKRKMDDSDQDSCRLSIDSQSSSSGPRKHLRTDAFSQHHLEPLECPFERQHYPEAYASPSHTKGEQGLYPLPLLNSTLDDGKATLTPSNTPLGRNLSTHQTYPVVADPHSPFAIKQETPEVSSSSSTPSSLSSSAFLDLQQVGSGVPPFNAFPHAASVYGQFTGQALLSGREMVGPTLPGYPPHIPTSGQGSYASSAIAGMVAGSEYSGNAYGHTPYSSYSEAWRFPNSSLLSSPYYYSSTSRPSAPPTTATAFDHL

[13] = cytotoxicity in HEK-293T cells, dose response, cytotoxicity control for TCR NF-kB inhibitor project, luminescence, T-cell screen hits (AID 489026); assay type: functional, cell-based;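 also: cells exposed to compound about 14 hours before the viability readout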
[14] = target: UDP-galactopyranose mutase (Mycobacterium tuberculosis, UniProt P9WIQ1); experiment: Inhibitors of Mycobacterium tuberculosis UDP-galactopyranose mutase (UGM) enzyme Measured in Biochemical System Using Plate Reader - 2105-02_Inhibitor_Dose_CherryPick_Activity. [Related pubchem assays (depositor defined):AID504439]
Sequence of UDP-galactopyranose mutase (P9WIQ1 whole entry): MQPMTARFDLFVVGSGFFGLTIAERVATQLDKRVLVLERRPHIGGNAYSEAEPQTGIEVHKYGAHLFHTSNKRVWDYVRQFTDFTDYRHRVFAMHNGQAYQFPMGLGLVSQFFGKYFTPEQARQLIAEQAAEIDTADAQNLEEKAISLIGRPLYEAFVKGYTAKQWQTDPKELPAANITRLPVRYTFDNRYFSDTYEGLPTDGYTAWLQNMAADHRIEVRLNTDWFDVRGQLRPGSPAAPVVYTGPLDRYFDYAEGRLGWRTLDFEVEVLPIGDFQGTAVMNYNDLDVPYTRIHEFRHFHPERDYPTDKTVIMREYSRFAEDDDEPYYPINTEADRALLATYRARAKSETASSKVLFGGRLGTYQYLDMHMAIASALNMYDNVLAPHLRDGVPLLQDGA

SN12K1 = experiment: cells; assay type: functional; settings: Homo sapiens
Keap1/Nrf2 = Keap1/Nrf2 (Homo sapiens, UniProt Q14145); experiment: Keap1-Nrf2 protein-protein interaction inhibitors, dose response, biochemical, fluorescence polarization, cherry-picked samples (AID 588683)
Sequence of Keap1/Nrf2 (Q16236 whole entry): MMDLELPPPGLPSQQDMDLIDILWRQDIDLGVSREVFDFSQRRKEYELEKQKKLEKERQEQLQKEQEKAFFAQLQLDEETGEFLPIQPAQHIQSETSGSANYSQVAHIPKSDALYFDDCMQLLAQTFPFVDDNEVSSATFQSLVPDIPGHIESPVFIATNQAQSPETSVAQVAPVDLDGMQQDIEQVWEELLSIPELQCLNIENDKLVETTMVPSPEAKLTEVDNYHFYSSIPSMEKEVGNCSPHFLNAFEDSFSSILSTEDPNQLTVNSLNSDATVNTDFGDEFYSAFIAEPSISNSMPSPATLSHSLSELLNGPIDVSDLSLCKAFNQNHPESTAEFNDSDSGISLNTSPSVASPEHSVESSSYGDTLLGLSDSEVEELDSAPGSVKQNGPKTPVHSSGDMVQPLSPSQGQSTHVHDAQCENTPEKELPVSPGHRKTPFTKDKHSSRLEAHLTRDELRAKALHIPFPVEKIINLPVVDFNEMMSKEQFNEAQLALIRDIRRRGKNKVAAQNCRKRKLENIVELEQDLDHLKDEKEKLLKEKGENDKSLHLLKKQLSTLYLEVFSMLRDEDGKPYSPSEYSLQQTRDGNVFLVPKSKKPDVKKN
Sequence of Keap1/Nrf2 (Q14145 whole entry): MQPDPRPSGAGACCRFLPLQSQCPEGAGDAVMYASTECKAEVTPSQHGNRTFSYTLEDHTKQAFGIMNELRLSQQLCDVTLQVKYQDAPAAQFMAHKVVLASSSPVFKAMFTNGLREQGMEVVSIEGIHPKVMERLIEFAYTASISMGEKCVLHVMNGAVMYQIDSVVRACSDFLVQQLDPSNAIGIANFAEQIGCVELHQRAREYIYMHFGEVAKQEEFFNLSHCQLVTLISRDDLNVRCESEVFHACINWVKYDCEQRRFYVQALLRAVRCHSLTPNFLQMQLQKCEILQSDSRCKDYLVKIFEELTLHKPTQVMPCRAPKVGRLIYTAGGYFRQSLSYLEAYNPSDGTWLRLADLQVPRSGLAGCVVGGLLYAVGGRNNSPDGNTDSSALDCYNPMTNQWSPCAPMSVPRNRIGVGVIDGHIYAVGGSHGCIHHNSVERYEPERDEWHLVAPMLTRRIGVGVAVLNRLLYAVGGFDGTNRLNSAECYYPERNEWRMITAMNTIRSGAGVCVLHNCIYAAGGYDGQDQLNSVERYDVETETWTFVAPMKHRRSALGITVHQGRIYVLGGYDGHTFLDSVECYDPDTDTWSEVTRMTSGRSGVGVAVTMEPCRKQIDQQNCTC

HeLa = experiment: HeLa cell cytotoxicity, dose response, cytotoxicity control, 24 h, cherry-picked samples (AID 504726); assay type: functional, cell-based; settings: Homo sapiens;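 also: potency for cytotoxicity as loss of luminescence signal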
[15] = CellTiter-Glo luminescent dose response of DLD-1 viability loss (AID 1117352); assay type: functional
[16] = cytotoxicity toward DRD oncogenic fibroblasts, dose response, cell-based, non-viral oncogenic, luminescence (AID 1934); assay type: functional; settings: Homo sapiens
[17] = Concentration-dependent survival of SW480 colon cancer line, luminescence detection with CellTiter-Glo, half-maximal inhibitory concentration (AID 1117338); assay type: functional
[18] = RKO cell viability reduction, dose response, CellTiter-Glo luminescence (AID 1117322); assay type: functional
HEK293 [19] = experiment: optical interference in Abeta FP readout, dose response, artefact control for IDE activator project, biochemical, fluorescence polarization (AID 588442); assay type: functional, cell-based; settings: Homo sapiens
[20] = HeLa 2N DNA content increase, dose response, cell-based, IC50 (AID 1117349); assay type: functional
cells = assay type: functional, cell-based; settings: HEK-CNG
[21] = Shn3 3'UTR reporter inhibitors, dose response, cell-based, Clone20 osteoblasts, firefly luciferase, cherry-picked (AID 624132); assay type: functional;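 also: firefly luciferase luminescence from reporter carrying the Shn3 3'UTR in osteoblasts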
Galanin receptor type 3 = Galanin receptor type 3 (Homo sapiens, UniProt O60755); experiment: Fluorescence-based cell-based primary high throughput dose response assay to identify antagonists of the Galanin Receptor 3 (GalR3).; assay type: functional
Sequence of Galanin receptor type 3 (O60755 whole entry): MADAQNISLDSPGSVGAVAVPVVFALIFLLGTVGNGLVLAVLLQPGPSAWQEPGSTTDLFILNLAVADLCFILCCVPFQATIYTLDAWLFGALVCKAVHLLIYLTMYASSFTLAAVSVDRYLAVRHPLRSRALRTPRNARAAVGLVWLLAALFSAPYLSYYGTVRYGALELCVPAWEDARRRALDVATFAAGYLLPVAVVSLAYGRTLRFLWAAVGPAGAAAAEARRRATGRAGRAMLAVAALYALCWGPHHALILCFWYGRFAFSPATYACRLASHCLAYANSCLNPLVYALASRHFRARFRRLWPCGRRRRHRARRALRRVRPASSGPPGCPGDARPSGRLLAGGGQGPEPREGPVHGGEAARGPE

[22] = cytotoxicity in HEK-293T NF-kB-Luc cells, dose response, cytotoxicity control for B/T-cell NF-kB inhibitor project, cell-based, uHTS hits (AID 489019); assay type: functional;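 also: IC50 reflects cytotoxicity as loss of cell viability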
Galanin receptor type 2 = Galanin receptor type 2 (Homo sapiens, UniProt O43603); experiment: Dose Response cell-based high-throughput screening assay to identify antagonists of galanin receptor 2 (GALR2). [Related pubchem assays: 828, 866 ]; assay type: functional
Sequence of Galanin receptor type 2 (O43603 whole entry): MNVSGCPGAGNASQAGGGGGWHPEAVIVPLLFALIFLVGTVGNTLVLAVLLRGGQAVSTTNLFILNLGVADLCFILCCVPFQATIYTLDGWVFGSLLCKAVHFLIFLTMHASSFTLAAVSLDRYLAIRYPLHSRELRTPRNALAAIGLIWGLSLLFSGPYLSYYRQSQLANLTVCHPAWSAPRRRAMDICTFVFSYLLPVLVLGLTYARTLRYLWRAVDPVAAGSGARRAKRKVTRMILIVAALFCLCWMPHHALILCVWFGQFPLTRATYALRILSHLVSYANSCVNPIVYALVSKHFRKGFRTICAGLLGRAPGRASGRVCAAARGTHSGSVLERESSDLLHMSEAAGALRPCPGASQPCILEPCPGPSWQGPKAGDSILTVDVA

[23] = HepG2 cell cytotoxicity, dose response, cytotoxicity control for Shn3 inhibitor project, CellTiter-Glo, cherry-picked (AID 624134); assay type: functional, cell-based
[24] = control 3'UTR Renilla luciferase suppression, dose response, counter-screen for Shn3 inhibitor project, cell-based, Clone20-Shn3RL, cherry-picked (AID 624133); assay type: functional
INS1 = experiment: beta cell apoptosis inhibitors, cytokine rescue, dose response, luminescence, retest (AID 449756); assay type: functional, cell-based; settings: Rattus norvegicus;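 also: cell death triggered by IL-1 beta plus TNF-alpha plus IFN-gamma mixture; protective hits raise ATP signal compared with cytokine alone wells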
Jurkat = experiment: antigen receptor-induced NF-kB inhibitors, dose response, Jurkat, luciferase reporter, luminescence, B- and T-cell (AID 489004); assay type: functional, cell-based; settings: Homo sapiens;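 also: NF-kB luciferase reporter Jurkat cells stimulated with PMA plus ionomycin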
[25] = target: T2, DNA repair protein RAD52 homolog (Homo sapiens, UniProt P43351); assay type: functional, biochemical
T2 sequence (P43351 whole entry): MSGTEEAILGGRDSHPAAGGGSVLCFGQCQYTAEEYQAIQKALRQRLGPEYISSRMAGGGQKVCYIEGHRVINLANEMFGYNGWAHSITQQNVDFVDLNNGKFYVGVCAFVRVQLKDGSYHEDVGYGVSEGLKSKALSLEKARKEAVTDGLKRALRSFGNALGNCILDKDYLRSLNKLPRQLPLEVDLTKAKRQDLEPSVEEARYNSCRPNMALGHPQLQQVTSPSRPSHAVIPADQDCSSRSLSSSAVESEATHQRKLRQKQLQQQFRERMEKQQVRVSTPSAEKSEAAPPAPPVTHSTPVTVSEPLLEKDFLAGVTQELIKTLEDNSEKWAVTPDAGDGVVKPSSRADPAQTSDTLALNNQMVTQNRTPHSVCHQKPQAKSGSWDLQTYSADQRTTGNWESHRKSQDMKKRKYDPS

[26] = target: T3, DNA repair and recombination protein RAD54-like (Homo sapiens, UniProt Q92698); experiment: inhibitors of human RAD54 branch migration, confirmation, biochemical, fluorescence, cherry-picked samples, dose series (AID 651657); assay type: functional
T3 sequence (Q92698 whole entry): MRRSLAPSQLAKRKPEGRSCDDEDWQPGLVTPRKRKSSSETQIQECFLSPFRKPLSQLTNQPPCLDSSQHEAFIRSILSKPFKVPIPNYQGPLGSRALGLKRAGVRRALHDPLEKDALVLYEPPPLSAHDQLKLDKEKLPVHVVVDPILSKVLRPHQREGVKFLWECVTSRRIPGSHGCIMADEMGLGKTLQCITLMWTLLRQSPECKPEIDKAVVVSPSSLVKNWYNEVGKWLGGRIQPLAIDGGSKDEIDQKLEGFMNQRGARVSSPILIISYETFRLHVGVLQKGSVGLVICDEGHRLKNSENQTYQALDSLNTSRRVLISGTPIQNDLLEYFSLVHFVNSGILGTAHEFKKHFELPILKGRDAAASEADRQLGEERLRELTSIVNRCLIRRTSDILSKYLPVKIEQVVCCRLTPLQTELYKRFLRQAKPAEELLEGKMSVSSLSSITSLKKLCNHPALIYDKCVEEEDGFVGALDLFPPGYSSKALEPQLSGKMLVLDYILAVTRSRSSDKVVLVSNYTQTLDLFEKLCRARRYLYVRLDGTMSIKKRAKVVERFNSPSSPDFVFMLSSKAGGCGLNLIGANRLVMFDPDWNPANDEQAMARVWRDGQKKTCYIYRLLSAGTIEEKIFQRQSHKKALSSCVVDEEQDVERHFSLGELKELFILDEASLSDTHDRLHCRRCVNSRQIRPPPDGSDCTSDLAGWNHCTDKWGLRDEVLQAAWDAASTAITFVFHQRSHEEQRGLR

[27] = target: T4, Nuclear receptor subfamily 0 group B member 1 (Homo sapiens, UniProt P51843); experiment: Luminescence-based cell-based high throughput dose response assay for inhibitors of the orphan nuclear receptor subfamily 0, group B, member 1 (DAX1; NR0B1). [Related pubchem assays (depositor defined):AID504766, AID504790]; assay type: functional
T4 sequence (P51843 whole entry): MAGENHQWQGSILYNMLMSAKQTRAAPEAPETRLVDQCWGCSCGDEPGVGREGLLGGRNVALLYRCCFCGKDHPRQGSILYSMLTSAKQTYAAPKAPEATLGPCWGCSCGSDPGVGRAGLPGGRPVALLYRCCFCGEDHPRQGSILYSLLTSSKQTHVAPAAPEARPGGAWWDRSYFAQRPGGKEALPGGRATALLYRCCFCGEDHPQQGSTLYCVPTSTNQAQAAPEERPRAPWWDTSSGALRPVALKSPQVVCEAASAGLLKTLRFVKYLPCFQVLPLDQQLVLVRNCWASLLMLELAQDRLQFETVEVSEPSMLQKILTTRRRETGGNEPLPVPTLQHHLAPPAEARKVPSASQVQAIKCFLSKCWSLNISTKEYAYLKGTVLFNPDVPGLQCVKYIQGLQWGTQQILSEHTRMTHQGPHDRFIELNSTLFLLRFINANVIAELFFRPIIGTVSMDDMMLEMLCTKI

HEK293 [28] = experiment: cells; assay type: functional, cell-based; settings: Homo sapiens
[29] = DNA binding of candidate compounds, dose response, artefact control for RAD54 inhibitor project, biochemical, fluorescence polarization, cherry-pick (AID 651673); assay type: functional
HEK293 [30] = experiment: cells; settings: Homo sapiens
HEK293 [31] = experiment: cells; settings: Homo sapiens; remark: listed apart in the source

CC[C@@]1(O)C(=O)OCc2c1cc1n(c2=O)Cc2cc3c(CN(C)C)c(O)ccc3nc2-1 [TOPOTECAN HYDROCHLORIDE]
active: IC50 [1] 34.1 nM | EC50 (BJ [2]) 246 nM | AC50 (ORF 73) 2150 nM | GI50 (P388) 29 nM | EC50 (BJ [4]) 19.8 nM | GI50 (P388/ADR) 136 nM | IC50 [6] 301 nM | IC50 [7] 24.6 nM | EC50 (BJ [8]) 159 nM | EC50 (BJ [11]) 11300 nM | IC50 [12] 1.44 nM | AC50 (Paired box protein Pax-8) < 260 nM | AC50 [14] 6860 nM | GI50 (SN12K1) 26.7 nM | AC50 (Keap1/Nrf2) 3700 nM | AC50 (HeLa) 17100 nM | IC50 [15] 177 nM | EC50 [16] 549 nM | IC50 [17] 233 nM | IC50 [18] 34.2 nM | IC50 [20] 13.6 nM
inactive: EC50 (Insulin-degrading enzyme [3]) > 54700 nM | IC50 [5] > 10000 nM | IC50 (HEK293 [9]) > 89200 nM | EC50 (Insulin-degrading enzyme [10]) > 54700 nM | IC50 [13] > 80000 nM | EC50 (HEK293 [19]) > 54700 nM

COc1ccc(CCNc2c(C)c(C)nc3ncnn23)cc1
active: AC50 [21] 565 nM | IC50 (Galanin receptor type 3) 1310 nM | AC50 [23] 25600 nM | AC50 [24] < 260 nM | AC50 (INS1) 2570 nM
> 42000 nM (not active): IC50 (Galanin receptor type 2)
inactive: EC50 (cells) > 29900 nM | IC50 [22] > 80000 nM | IC50 (Jurkat) > 80000 nM

COc1cc2c3c(cccc3c1)C(=O)N(CCN1CCCC1)C2=O
active: AC50 [25] 5720 nM | AC50 [26] 2160 nM | AC50 [29] 37100 nM
inactive: IC50 [27] > 67600 nM | IC50 (HEK293 [28]) > 67600 nM | EC50 (HEK293 [30]) > 59700 nM | EC50 (HEK293 [31]) > 59700 nM
